Experiment [1] concerns the target endogenous BRD4 in HEK293T cells (Homo sapiens, UniProt O60885). Kind of experiment: Western blot of endogenous BRD4 degradation. Conditions: 18 h. The class given is cell-based.
The target of a further experiment is VHL-LgBiT (human) (UniProt P40337).
VHL-LgBiT (human), sequence (P40337 whole entry): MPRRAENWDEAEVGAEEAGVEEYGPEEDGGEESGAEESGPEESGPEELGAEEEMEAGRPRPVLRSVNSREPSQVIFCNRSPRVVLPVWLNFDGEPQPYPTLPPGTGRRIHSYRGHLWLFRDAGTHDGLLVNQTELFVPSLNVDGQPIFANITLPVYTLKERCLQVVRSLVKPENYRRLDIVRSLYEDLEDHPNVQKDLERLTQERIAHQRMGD

Turning to `Cc1ncsc1-c1ccc(CNC(=O)[C@@H]2C[C@@H](O)CN2C(=O)[C@@H](NC(=O)COCCOCCOCCNC(=O)C[C@@H]2N=C(c3ccc(Cl)cc3)c3c(sc(C)c3C)-n3c(C)nnc32)C(C)(C)C)cc1` [MZ1], the “endogenous BRD4 degradation at 1 μM (Western blot)” value in experiment [1] (1 μM) was “complete BRD4 removal”.

In the case of `CC(=O)N[C@H](C(=O)N1C[C@H](O)C[C@H]1C(=O)NCc1ccc(-c2scnc2C)cc1)C(C)(C)C` [VH032], in experiment [1], the “endogenous BRD4 degradation (Western blot)” value is “no degradation”. Regarding SmBiT-BRD4^BD1 (domain or fragment), in the experiment with VHL-LgBiT (human), the HiBiT assay: DC50 of degradation of HiBiT-tagged BRD4^BD1 in HEK293T with CIP-2 is 17 nM and the HiBiT assay: Dmax of degradation of HiBiT-tagged BRD4^BD1 in HEK293T with CIP-2 worked out at 93%.
